The results in this text go back to patent US7939540B2, “4-(3-benzoylaminophenyl)-6,7-dimethoxy-2-methylaminoquinazoline derivatives” (Eisai R&D Management Co., Ltd., priority 2006, dated 2011).

Like-named read-outs stand apart in the source and are kept apart here.

Data set [1] deals with CYP3A4. The experiment in a line: Induction potency of drug metabolizing enzyme (CYP) using cryopreserved human hepatocytes, CYP3A4 mRNA. Particulars: approximately 48 hours, mRNA normalised to GAPDH, positive control rifampicin 10 μM.
Method: (§1) Cryopreserved human hepatocytes (XenoTeck) were rapidly thawed at 37° C., and viable cells were obtained using Hepatocytes Isolation Kit (Nosan Corporation). After cells prepared were diluted with ice cold William's Medium E (10% FBS, +PSG) to give a concentration of 5×10^5 viable cells/mL, the cells were seeded onto a 48-well collagen-coated plate (BD Biosciences) at a concentration of 1×10^5 cells/cm^2 and cultured at 37° C. in 5% CO2 for 24 hours. Then, the medium was replaced with Hepato-STIM (registered trade mark: BD Biosciences) (+EGF, PSG, −FBS), and the cells were further cultured at 37° C. in 5% CO2 for 24 hours. […] The culture medium containing test compound, β-NF or Rif was replaced every 24 hours. Test compound, β-NF and Rif were each dissolved in dimethyl sulfoxide (DMSO: Wako Pure Chemical Industries, Ltd.), and culture medium containing test compound (final concentrations; 1, 3 and 10 μM), β-NF (final concentration; 10 μM) or Rif (final concentration; 10 μM) was prepared by adding them to Hepato-STIM(+EGF, PSG, −FBS), respectively. Final concentration of DMSO was set to be 0.1%, and culture medium containing 0.1% DMSO was used for control. After completion of the treatment, the cells were washed with PBS once, and total RNA was purified using Total RNA Purification Kit (Applied Biosystems). The purified total RNA was subjected to reverse transcription reaction using TaqMan Reverse Transcription Reagents (Applied Biosystems) to synthesize cDNA, where oligo dT was used as a primer. The reaction was carried out using Gene Amp PCR system 9700 at 25° C. for 10 minutes, followed by at 48° C. for 60 minutes. Then, reverse transcriptase was deactivated at 95° C. for 10 minutes. The levels of mRNA for CYP1A1 and GAPDH were quantified using SYBR Green PCR Core Reagents Kit (Applied Biosystems), and those for CYP1A2 and that of CYP3A4 were measured using Taqman PCR Core Reagents Kit (Applied Biosystems) and ABI Prism 7900 Sequence Detection System (Applied Biosystems).
(§2) * A cycle consisting of denaturation, annealing, and elongation reaction, was repeated 50 times.
(§3) The ability of a test compound to induce CYP1A1 was calculated as follows: Ability of a test compound to induce CYP1A1 (%)={[(amount of mRNA of CYP1A1 in test compound treated cells)/(amount of mRNA of GAPDH in test compound treated cells)]/[(amount of mRNA of CYP1A1 in control cells)/(amount of mRNA of GAPDH in control cells)]−1}/{[(amount of mRNA of CYP1A1 in positive control treated cells)/(amount of mRNA of GAPDH in positive control treated cells)]/[(amount of mRNA of CYP1A1 in control cells)/(amount of mRNA of GAPDH in control cells)]−1}×100
Data set [2] relates to CYP1A2. As to conditions: human, hepatocytes.
Method: as §1, §2, §3
For data set [3], the system named is CYP1A1. Particulars: human, hepatocytes.
Method: as §1, §2, §3
The subject of data set [4] is CYPs. Briefly: Induction potency on CYPs in cryopreserved human hepatocytes, overall statement. Format: in vitro ADME. Particulars: cryopreserved human hepatocytes, 1, 3 and 10 μM; result in words. Here is the method:
The ability to induce CYP1A2 or CYP3A4 was calculated in the same manner described above.

On to `CNc1nc(-c2cccc(NC(=O)c3cccc(C(=O)OCCOC)c3)c2)c2cc(OC)c(OC)cc2n1` [Example 21, N-[3-(6,7-dimethoxy-2-methylaminoquinazolin-4-yl)phenyl]isophthalamic acid 2-methoxyethyl ester], for which the “Induction Ability compared to positive control (%) CYP3A4” value (“Induction Ability … (%) CYP3A4” below) is listed as −1.2% in data set [1] (test compound 1 μM), −1.6% in data set [1] (test compound 3 μM) and −2.0% in data set [1] (test compound 10 μM). In addition, the entries for the “Induction Ability compared to positive control (%) CYP1A2” value (“Induction Ability … (%) CYP1A2” below) in data set [2] (1 μM), in data set [2] (3 μM) and in data set [2] (10 μM) were 0.6%, −0.3% and 0.4%, respectively. In addition, the entries for the “Induction Ability compared to positive control (%) CYP1A1” value (“Induction Ability … (%) CYP1A1” below) in data set [3] (1 μM), in data set [3] (3 μM) and in data set [3] (10 μM) were 0.0%, 0.0% and 0.1%, respectively.
Regarding `CNC(=O)c1cccc(C(=O)Nc2cccc(-c3nc(NC)nc4cc(OC)c(OC)cc34)c2)c1` [Example 16, N-[3-(6,7-dimethoxy-2-methylaminoquinazolin-4-yl)phenyl]-N′-methylisophthalamide], the “Induction Ability … (%) CYP3A4” value in data set [1] (test compound 1 μM) was −0.7%; in data set [1] (test compound 3 μM) it was −0.3%; in data set [1] (test compound 10 μM) it was 2.7%. The “Induction Ability … (%) CYP1A2” value in data set [2] (1 μM) is reported as 0.2%; in data set [2] (3 μM), 3.9%; in data set [2] (10 μM) it was 1.2%. Moreover, the results for the “Induction Ability … (%) CYP1A1” value in data set [3] (1 μM), in data set [3] (3 μM) and in data set [3] (10 μM) were 0.0%, 0.3% and 1.0%, respectively.
Take `CNc1nc(-c2cccc(NC(=O)c3ccc(C(=O)OC(C)C)cc3)c2)c2cc(OC)c(OC)cc2n1` [Example 7, isopropyl N-[3-(6,7-dimethoxy-2-methylaminoquinazolin-4-yl)phenyl]terephthalamic acid]: the “Induction Ability … (%) CYP3A4” value is −6.6% in data set [1] (test compound 1 μM), −9.8% in data set [1] (test compound 3 μM) and −11.9% in data set [1] (test compound 10 μM). The “Induction Ability … (%) CYP1A2” value in data set [2] (1 μM) is 0.5%; in data set [2] (3 μM), 1.5%; in data set [2] (10 μM) it was 3.1%. For the same molecule, the “Induction Ability … (%) CYP1A1” value in data set [3] (1 μM) was determined as 0.2%; in data set [3] (3 μM) it was 1.8%; in data set [3] (10 μM), 5.7%.
For the molecule `CNc1nc(-c2cccc(NC(=O)c3ccc(C(=O)OCCOC)cc3)c2)c2cc(OC)c(OC)cc2n1` [Example 20, N-[3-(6,7-dimethoxy-2-methylaminoquinazolin-4-yl)phenyl]terephthalamic acid 2-methoxyethyl ester], the “Induction Ability … (%) CYP3A4” value in data set [1] (test compound 1 μM) was −2.0%; in data set [1] (test compound 3 μM) it was −2.1%; in data set [1] (test compound 10 μM) it was −2.2%. Moreover, the “Induction Ability … (%) CYP1A2” value in data set [2] (1 μM) is −1.7%; in data set [2] (3 μM) it was −1.6%; in data set [2] (10 μM) it was −1.2%. Further, the “Induction Ability … (%) CYP1A1” value in data set [3] (1 μM) stood at 0.1%; in data set [3] (3 μM) it was 0.1%; in data set [3] (10 μM) it was 0.8%.
For the molecule `CCCOC(=O)c1cccc(C(=O)Nc2cccc(-c3nc(NC)nc4cc(OC)c(OC)cc34)c2)c1` [Example 14, propyl N-[3-(6,7-dimethoxy-2-methylaminoquinazolin-4-yl)phenyl]isophthalic acid], the “Induction Ability … (%) CYP3A4” value in data set [1] (test compound 1 μM) is recorded as 0.7%; in data set [1] (test compound 3 μM), −0.1%; in data set [1] (test compound 10 μM), −1.5%. Further, the “Induction Ability … (%) CYP1A2” value in data set [2] (1 μM) was determined as 1.2%; in data set [2] (3 μM), 3.0%; in data set [2] (10 μM), 1.8%. Besides, the “Induction Ability … (%) CYP1A1” value in data set [3] (1 μM) came out at 0.2%; in data set [3] (3 μM), 0.3%; in data set [3] (10 μM) it was 0.7%.
Regarding `CNc1nc(-c2cccc(NC(=O)c3ccccc3)c2)c2cc(OC)c(OC)cc2n1` [Comparative example, 4-(3-benzoylaminophenyl)-6,7-dimethoxy-2-methylaminoquinalozine, reference compound], the figures for the “Induction Ability … (%) CYP3A4” value in data set [1] (test compound 1 μM), in data set [1] (test compound 3 μM) and in data set [1] (test compound 10 μM) were 1.6%, 10.8% and 17.0%, respectively. For the same molecule, the entries for the “Induction Ability … (%) CYP1A2” value in data set [2] (1 μM), in data set [2] (3 μM) and in data set [2] (10 μM) were 7.2%, 34.3% and 35.0%, respectively. In data set [4], the “induction potency on CYPs” value is given as “induction potency on CYPs was observed”. Also, the figures for the “Induction Ability … (%) CYP1A1” value in data set [3] (1 μM), in data set [3] (3 μM) and in data set [3] (10 μM) were 2.1%, 18.5% and 51.9%, respectively.
Take `CCOC(=O)c1ccc(C(=O)Nc2cccc(-c3nc(NC)nc4cc(OC)c(OC)cc34)c2)cc1` [Example 4, ethyl N-[3-(6,7-dimethoxy-2-methylaminoquinazolin-4-yl)phenyl]terephthalamic acid]: the “Induction Ability … (%) CYP3A4” value in data set [1] (test compound 1 μM) is given as −5.6%; in data set [1] (test compound 3 μM), −6.1%; in data set [1] (test compound 10 μM), 0.1%. For the same molecule, the “Induction Ability … (%) CYP1A2” value is −1.1% in data set [2] (1 μM), 0.6% in data set [2] (3 μM) and 6.1% in data set [2] (10 μM). The figures for the “Induction Ability … (%) CYP1A1” value in data set [3] (1 μM), in data set [3] (3 μM) and in data set [3] (10 μM) were 0.1%, 0.4% and 1.5%, respectively.
As for `CNC(=O)c1ccc(C(=O)Nc2cccc(-c3nc(NC)nc4cc(OC)c(OC)cc34)c2)cc1` [Example 5, N-[3-(6,7-dimethoxy-2-methylaminoquinazolin-4-yl)phenyl]-N′-methylterephthalamide], the figures for the “Induction Ability … (%) CYP3A4” value in data set [1] (test compound 1 μM), in data set [1] (test compound 3 μM) and in data set [1] (test compound 10 μM) were −6.9%, −6.2% and −2.0%, respectively. Moreover, the “Induction Ability … (%) CYP1A2” value in data set [2] (1 μM) is −2.0%; in data set [2] (3 μM), −1.3%; in data set [2] (10 μM) it was 0.5%. Also, the “Induction Ability … (%) CYP1A1” value in data set [3] (1 μM), in data set [3] (3 μM) and in data set [3] (10 μM) was 0.0% each time.
